From patent US20140314697A1, “Method for Inhibiting Inflammation and Reducing Melanophilin Expression with Glycine Derivatives And the Composition Thereof” (CORUM INC., priority 2013, published 2014)
Square brackets hold non-standard residues; d marks the D form. Peptide text beside a SMILES is read from it. Sar = CNCC(=O)O

Legend:
[1] = tested on: Human IL-6 secretion, Normal Human Epidermal Keratinocytes (NHEK); assay: Human IL-6 production in UVB-irradiated NHEK (ELISA); assay type: cell-based; details: Table 9, 0.20%, Positive Control 100%; for Human IL-6 Content, Average: 40 mJ/cm^2 UVB; for Human IL-6 Content, Entry 1: passage 2 + 2, 40 mJ/cm^2 UVB; for Human IL-6 Content, Entry 2 / Human IL-6 Content, Entry 3: passage 2 + 3, 40 mJ/cm^2 UVB
Description: (§1) Normal Human Epidermal Keratinocytes (NHEK) (PromoCell No. C-12008);
(§2) Positive Control: 40 mJ/cm^2 UVB,
(§3) Negative Control: No UVB irradiation;
(§4) a. Rinse the confluent NHEK cells with sterile D-PBS then trypsinize all cells and perform cell counting.
(§5) b. Dilute the cell density to 4˜8E+04/mL and seed 0.5 mL cell liquid (equals to 2˜4E+04 cells) each well in 24 well plate.
(§6) c. Incubate NHEK cells at 37° C., 5% CO2 until subconfluence.
(§7) d. Prepared dosing solution of testing material in Complete Medium: 0.4%, 0.2%, 0.1%, 0.05%.
(§8) e. Rinse the NHEK cells with sterile D-PBS and discard rinse buffer. Add 400 μL of controls and testing materials in different concentrations into NHEK cells in 24 well plates.
(§9) f. Pre-incubate NHEK cells with testing material at 37° C., 5% CO2 for about 6 hours.
(§10) g. After pre-incubating for about 6 hours, wash the NHEK cells with sterile D-PBS for twice then add […] sterile D-PBS for UVB irradiation.
(§11) h. UVB intensity is about 2300 μW/cm^2 and UVB energy is about 40 mJ/cm^2.
(§12) i. After UVB irradiation, discard sterile D-PBS and wash again. Add 400 μL of the same dosing solution in to each wells.
(§13) j. Post-incubate at 37° C., 5% CO2 for about 18 hours.
(§14) k. After post-incubating for 18 hours, collect the supernatant of controls and testing materials.
(§15) l. Determine the IL-6/IL-8 content of the supernatant by R&D ELISA kit as mentioned previously.
(§16) Normal Human Epidermal Keratinocytes (NHEK) were treated by the above-mentioned glycine derivatives for evaluating their anti-inflammatory effect on keratinocytes in this example.

[2] = tested on: Human IL-8 secretion, Normal Human Epidermal Keratinocytes (NHEK); assay: Human IL-8 production in UVB-irradiated NHEK (ELISA); assay type: cell-based; details: Table 10, 0.20%; for Human IL-8 Content, Average: 40 mJ/cm2 UVB; for Human IL-8 Content, Entry 1: passage 2 + 3, 40 mJ/cm2 UVB; for Human IL-8 Content, Entry 2: passage 2 + 4, 40 mJ/cm2 UVB; for Human IL-8 Content, Entry 3: passage 2 + 5, 40 mJ/cm2 UVB; for Human IL-8 Content, Entry 4: passage 2 + 6, 40 mJ/cm2 UVB
Description: as §1, §2, §3, §4, §5, §6, §7, §8, §9, §10, §11, §12, §13, §14, §15, §16

Row | Compound | Human IL-6 Content, Average [1] [%] | Human IL-6 Content, Entry 1 [1] [%] | Human IL-6 Content, Entry 2 [1] [%] | Human IL-6 Content, Entry 3 [1] [%] | Human IL-8 Content, Average [2] [%] | Human IL-8 Content, Entry 1 [2] [%] | Human IL-8 Content, Entry 2 [2] [%] | Human IL-8 Content, Entry 3 [2] [%] | Human IL-8 Content, Entry 4 [2] [%]
1 | CC(=O)NCC(=O)N(C)CC(=O)O [Ac-Gly-Sar, [(2-Acetylamino-acetyl)-methyl-amino]-acetic acid] (Ac-Gly-[Sar]-OH) | 14 | 14 | 21 | 7 | 76 | 73 | 70 | 74 | 88
2 | CC(=O)NCC(=O)NCCCC(=O)O [Ac-Gly-GABA, 4-(2-Acetylamino-acetylamino)-butyric acid] | 14 | 11 | 25 | 6 | 70 | 59 | 70 | 64 | 87
3 | CC(=O)NCC(=O)NCC(=O)O [Ac-Gly-Gly, (2-acetylamino-acetylamino)-acetic acid] | 20 | 12 | 16 | 33 | 59 |  | 68 | 54 | 53
